What was measured:
Hut-78 cells = experiment: Inhibition in Hut-78 cells (IL-2 stimulated, HTRF); type: cell-based; conditions: Homo sapiens, HuT78; compound 2 hours at 37° C., then IL-2 100 ng/mL 10 min; HTRF; read-out: Hut-78 cells IC50
Protocol: Exemplary compounds were assayed to determine potency in inhibiting Hut-78 cells by determining IC50 values.
Hut-78 cells were cultures in IMDM+20% FBS medium. Cells were maintained in log phase before the assay. Cell pellets were collected and resuspended in serum-free and phenol-free RPMI 1640 medium. 40,000 cells/well (10 μL) were seeded in each well of a 384-well plate and incubated with and without compound for 2 hours at 37° C. and 5% C02. IL-2 was added (2 μL, final concentration 100 ng/mL) and the mixture was incubated for 10 min. Cells were lysed by adding 4 μL labeled antibodies and the mixture was incubated overnight. The plate was read using the HTRF protocol on an Envision plate reader. The data was analyzed using XL-fit software (Supplier: ID business solutions Ltd.; Software version: XL fit 5.0). Inhibition %=(Max−Sample value)/(Max−Min)*100.
In the table, “A” indicates an IC50 of less than 0.5 μM, “B” indicates an IC50 range from 0.5 μM to 1 μM; and “C” indicates an IC50 range from 1 μM to 10 μM. Also, “na” indicates data is not available.

JAK3 = target: T1, JAK3 (Homo sapiens, UniProt P52333); experiment: Inhibition of JAK3 kinase, LANCE Ultra TR-FRET assay; type: biochemical; conditions: 2x ATP 8 μM, 15 min pre-incubation, 90 min reaction, 23° C.
T1 construct: purchased Invitrogen PV4080
T1 sequence (P52333 1-1124): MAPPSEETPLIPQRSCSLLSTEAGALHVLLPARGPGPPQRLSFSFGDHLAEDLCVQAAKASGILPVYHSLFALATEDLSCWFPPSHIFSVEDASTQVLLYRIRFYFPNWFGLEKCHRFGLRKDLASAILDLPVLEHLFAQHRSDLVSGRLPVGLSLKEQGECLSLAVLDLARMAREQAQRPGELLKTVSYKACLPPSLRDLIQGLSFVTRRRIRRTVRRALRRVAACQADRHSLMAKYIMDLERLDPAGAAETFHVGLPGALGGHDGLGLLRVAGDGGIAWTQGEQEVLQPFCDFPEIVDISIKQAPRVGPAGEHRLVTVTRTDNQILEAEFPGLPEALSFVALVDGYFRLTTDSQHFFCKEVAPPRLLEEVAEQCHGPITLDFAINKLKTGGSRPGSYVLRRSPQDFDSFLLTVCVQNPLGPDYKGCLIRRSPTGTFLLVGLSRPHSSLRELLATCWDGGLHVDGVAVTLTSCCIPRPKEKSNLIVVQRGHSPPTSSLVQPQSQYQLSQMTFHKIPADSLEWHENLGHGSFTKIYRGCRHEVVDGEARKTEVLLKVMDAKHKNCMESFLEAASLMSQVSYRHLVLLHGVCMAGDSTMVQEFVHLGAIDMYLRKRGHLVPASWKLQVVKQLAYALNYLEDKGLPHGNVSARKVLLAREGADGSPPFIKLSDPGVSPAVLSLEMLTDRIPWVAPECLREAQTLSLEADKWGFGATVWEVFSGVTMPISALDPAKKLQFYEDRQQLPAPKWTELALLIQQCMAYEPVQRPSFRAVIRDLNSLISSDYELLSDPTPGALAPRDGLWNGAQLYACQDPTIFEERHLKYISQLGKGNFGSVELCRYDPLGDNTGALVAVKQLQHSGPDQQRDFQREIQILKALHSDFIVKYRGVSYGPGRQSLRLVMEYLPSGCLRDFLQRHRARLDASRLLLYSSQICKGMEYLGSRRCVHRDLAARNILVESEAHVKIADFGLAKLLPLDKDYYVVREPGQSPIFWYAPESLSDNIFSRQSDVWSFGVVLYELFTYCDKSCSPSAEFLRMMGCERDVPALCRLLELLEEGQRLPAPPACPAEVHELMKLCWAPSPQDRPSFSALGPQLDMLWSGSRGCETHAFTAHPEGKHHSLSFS
Procedure, shortened: (§1)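 Enzyme, 50 nM ULight-JAK-1 peptide and compound (100 μM–1.7 nM, 11 points, duplicates) were preincubated 15 min in HEPES pH 7.5 buffer, and the reaction was started with 2× ATP stock (76 μM JAK1, 24 μM JAK2, 8 μM JAK3, 30 μM TYK2), 90 min, 23° C. Eu anti-phosphotyrosine TR-FRET 665/615; 4-parameter IC50.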

TYK2 = target: T2, TYK2 (Homo sapiens, UniProt P29597); experiment: Inhibition of TYK2 kinase, LANCE Ultra TR-FRET assay; type: biochemical; conditions: 4 nM TYK2, 2x ATP 30 μM, 15 min pre-incubation, 90 min reaction, 23° C., read-out: tyk IC50
T2 construct: purchased Invitrogen PR8440C
Procedure, shortened: as §1

JAK2 = target: T3, JAK2 (Homo sapiens, UniProt O60674); experiment: Inhibition of JAK2 kinase, LANCE Ultra TR-FRET assay; type: biochemical; conditions: 2x ATP 24 μM, 15 min pre-incubation, 90 min reaction, 23° C.
T3 construct: purchased Invitrogen PV4210
Procedure, shortened: as §1

JAK1 = target: T4, JAK1 (Homo sapiens, UniProt P23458); experiment: Inhibition of JAK1 kinase, LANCE Ultra TR-FRET assay; type: biochemical; conditions: 2 nM JAK1, 2x ATP 76 μM, 15 min pre-incubation, 90 min reaction, 23° C.
T4 construct: purchased Invitrogen PV4775
Procedure, shortened: as §1

T3 sequence (O60674 whole entry): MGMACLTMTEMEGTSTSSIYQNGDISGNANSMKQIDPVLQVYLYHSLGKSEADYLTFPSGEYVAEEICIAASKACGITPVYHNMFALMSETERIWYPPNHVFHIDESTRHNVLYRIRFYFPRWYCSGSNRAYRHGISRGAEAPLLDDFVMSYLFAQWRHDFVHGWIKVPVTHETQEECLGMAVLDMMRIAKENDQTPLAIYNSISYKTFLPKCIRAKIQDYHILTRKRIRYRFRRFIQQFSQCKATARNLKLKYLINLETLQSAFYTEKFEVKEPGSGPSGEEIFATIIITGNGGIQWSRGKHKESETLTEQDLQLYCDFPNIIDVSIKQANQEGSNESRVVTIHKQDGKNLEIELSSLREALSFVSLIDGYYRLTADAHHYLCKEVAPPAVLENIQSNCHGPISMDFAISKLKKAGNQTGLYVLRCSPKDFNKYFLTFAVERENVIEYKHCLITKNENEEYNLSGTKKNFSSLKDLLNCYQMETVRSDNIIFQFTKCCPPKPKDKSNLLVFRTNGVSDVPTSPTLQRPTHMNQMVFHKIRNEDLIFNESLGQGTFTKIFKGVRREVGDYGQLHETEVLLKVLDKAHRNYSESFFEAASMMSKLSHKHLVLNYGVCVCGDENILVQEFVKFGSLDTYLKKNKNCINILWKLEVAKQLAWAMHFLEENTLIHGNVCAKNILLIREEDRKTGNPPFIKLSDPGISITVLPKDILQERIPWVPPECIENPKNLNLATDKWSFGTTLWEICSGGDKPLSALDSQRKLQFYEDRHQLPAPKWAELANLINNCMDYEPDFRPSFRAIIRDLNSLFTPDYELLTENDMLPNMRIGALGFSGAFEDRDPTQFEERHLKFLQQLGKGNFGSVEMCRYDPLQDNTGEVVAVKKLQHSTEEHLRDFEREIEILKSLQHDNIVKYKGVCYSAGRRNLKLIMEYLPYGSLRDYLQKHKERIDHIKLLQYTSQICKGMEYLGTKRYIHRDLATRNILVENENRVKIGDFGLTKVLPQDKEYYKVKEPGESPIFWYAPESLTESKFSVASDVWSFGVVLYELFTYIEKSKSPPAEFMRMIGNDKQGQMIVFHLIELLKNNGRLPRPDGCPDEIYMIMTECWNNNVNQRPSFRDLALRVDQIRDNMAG
T4 sequence (P23458 whole entry): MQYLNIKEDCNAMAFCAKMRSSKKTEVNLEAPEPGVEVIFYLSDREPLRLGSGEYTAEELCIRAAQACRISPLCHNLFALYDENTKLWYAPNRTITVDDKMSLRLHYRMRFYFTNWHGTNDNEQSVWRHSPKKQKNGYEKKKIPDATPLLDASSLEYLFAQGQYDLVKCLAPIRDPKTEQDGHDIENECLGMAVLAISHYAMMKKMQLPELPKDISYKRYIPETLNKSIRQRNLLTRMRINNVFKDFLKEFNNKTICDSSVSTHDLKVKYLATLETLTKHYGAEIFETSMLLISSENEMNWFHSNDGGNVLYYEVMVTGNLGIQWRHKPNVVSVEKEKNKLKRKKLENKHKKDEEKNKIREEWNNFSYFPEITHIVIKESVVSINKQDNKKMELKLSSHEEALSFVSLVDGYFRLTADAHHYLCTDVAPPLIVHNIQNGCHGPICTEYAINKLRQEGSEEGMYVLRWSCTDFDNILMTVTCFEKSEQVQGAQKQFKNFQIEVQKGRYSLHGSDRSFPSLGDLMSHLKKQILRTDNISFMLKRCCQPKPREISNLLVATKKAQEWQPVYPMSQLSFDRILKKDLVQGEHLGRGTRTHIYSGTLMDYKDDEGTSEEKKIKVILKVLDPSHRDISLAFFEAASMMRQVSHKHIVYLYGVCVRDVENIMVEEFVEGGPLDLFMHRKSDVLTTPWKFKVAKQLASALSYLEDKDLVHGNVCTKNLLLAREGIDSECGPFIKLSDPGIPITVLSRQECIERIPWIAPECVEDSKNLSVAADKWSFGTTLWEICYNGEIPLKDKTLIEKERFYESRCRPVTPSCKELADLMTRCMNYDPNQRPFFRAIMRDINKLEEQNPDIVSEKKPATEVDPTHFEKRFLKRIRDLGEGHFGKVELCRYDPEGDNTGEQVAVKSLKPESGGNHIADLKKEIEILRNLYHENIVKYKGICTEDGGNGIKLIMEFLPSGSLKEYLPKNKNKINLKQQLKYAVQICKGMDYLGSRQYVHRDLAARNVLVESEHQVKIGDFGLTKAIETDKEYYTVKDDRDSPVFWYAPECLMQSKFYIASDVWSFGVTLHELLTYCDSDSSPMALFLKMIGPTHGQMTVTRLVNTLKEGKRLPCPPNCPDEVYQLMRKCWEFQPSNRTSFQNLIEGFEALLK
T2 sequence (P29597 whole entry): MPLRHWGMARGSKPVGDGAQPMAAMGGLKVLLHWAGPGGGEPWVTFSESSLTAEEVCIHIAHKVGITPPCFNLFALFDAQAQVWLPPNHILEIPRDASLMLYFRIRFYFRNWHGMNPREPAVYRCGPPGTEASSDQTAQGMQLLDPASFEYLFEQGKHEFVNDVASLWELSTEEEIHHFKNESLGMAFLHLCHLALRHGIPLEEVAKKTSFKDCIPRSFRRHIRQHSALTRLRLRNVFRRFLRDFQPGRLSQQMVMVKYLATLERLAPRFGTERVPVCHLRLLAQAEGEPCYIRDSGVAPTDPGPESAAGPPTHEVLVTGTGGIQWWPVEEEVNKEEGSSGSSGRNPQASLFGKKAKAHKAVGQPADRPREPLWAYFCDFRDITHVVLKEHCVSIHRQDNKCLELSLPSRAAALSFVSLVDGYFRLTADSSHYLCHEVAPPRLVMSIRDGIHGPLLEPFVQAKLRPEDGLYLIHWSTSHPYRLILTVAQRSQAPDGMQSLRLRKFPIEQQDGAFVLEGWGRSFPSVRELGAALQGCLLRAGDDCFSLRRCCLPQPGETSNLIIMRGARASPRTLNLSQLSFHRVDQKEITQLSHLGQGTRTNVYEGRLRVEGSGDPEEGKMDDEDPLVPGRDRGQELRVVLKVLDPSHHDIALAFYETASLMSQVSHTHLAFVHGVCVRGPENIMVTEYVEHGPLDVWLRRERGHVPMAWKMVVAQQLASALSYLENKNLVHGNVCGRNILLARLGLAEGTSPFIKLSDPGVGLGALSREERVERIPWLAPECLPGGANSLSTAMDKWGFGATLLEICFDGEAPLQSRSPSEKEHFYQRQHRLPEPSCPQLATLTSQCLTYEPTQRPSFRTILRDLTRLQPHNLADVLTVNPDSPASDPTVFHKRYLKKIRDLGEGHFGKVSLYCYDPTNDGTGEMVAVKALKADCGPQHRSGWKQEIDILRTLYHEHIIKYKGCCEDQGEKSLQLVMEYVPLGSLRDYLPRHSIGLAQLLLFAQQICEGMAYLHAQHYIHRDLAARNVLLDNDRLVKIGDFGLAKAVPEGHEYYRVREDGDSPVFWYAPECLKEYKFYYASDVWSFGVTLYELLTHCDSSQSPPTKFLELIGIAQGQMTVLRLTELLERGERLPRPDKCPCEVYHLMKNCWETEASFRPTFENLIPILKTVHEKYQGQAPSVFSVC

- IC50 (Hut-78 cells): 500 to 1000 nM
- IC50 (JAK3): < 100 nM
- IC50 (TYK2): > 2000 nM
- IC50 (JAK2): 100 to 500 nM
- IC50 (JAK1): < 100 nM
SMILES: O=C(NCCC(F)(F)F)c1noc2c1CN(c1ncnc3[nH]ccc13)CC21CC1 [Compound 192]

— patent US12286443B2, “Bycyclic JAK inhibitors and uses thereof” (Insilico Medicine IP Limited, priority 2019, dated 2025)
